Laboratory results taken from patent US7956216B2, “Alpha-helical mimetics” (The Walter and Eliza Hall Institute of Medical Research, priority 2006, dated 2011).
Like-named read-outs stand apart in the source and are kept apart here. Values belong to the molecule of their own block, whether it stands above or below them.

What was measured:
[1] = target: T1, GST tagged Bclw ΔC29 protein (Homo sapiens, UniProt Q92843); test: Alphascreen GST competition assay, Bcl-w vs biotinylated Bim BH3-26 peptide; type: binding; details: for IC50: read-out: Bcl-wΔ29 IC50
T1 construct: GST tagged Bclw ΔC29 protein
T1 sequence (Q92843 1-164 limits assumed): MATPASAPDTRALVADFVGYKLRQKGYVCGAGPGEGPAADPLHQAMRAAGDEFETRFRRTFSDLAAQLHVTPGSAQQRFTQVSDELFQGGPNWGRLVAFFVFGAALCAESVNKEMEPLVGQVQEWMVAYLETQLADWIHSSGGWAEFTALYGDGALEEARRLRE

[2] = target: T2, GST tagged Bcl-xL ΔC25 protein (Homo sapiens, UniProt Q07817); test: Alphascreen GST competition assay, Bcl-xL vs biotinylated Bim BH3-26 peptide; details: competition with biotinylated Bim BH3-26 peptide (5.0 nM), Bcl-xL 0.6 nM, n.b. = not binding in the assay conditions; for IC50: read-out: Bcl-xLΔ25 IC50
T2 construct: GST tagged Bcl-xL ΔC25 protein
T2 sequence (Q07817 1-208 limits assumed): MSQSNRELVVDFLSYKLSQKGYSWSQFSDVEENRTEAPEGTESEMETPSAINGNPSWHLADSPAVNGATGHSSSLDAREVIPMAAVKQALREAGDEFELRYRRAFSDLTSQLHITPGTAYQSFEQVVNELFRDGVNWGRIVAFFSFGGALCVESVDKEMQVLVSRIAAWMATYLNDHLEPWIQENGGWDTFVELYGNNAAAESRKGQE

GST tagged Mcl-1 protein = GST tagged Mcl-1 protein (Homo sapiens, UniProt Q07820); test: Alphascreen GST competition assay, Mcl-1 vs biotinylated Bak BH3 peptide; details: competition with biotinylated Bak BH3 peptide (4.0 nM), Mcl-1 0.4 nM; n.b. = not binding in the assay conditions
GST tagged Mcl-1 protein, sequence (Q07820 whole entry): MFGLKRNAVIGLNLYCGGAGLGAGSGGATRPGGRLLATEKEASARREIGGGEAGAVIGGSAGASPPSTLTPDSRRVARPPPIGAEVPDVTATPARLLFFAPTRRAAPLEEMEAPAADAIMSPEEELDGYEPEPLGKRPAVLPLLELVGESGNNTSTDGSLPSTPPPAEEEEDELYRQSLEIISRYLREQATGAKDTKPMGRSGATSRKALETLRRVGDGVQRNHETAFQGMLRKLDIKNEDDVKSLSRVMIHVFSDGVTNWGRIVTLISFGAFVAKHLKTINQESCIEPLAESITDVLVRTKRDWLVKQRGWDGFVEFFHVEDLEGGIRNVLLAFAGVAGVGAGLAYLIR

[3] = footnote a: tested in a separate experiment
[4] = competition with biotinylated Bim BH3-26 peptide (3.0 nM), Bcl-w 0.05 nM, n.b. = not binding in the assay conditions

- Mcl-1 IC50 (μM) (GST tagged Mcl-1 protein): n.b.^b
SMILES: CCCN(C(=O)N[C@@H](CSC(C)C)C(=O)O)C(=O)c1cccc(C#Cc2ccccc2)c1 [(92)]

- IC50 [1, 4]: 35 µM
- IC50 [2]: 73 µM
- IC50 (GST tagged Mcl-1 protein): 94 µM
SMILES: CCCN(C(=O)N[C@@H](CSCCCc1ccccc1)C(=O)O)C(=O)c1cccc(C#Cc2ccccc2)c1 [(95)]

- IC50 [1, 4]: 102 µM
- IC50 [2]: 182 µM
- IC50 (GST tagged Mcl-1 protein): 251 µM
SMILES: CCCN(C(=O)CCCc1ccccc1)C(=O)N[C@@H](CSCc1ccccc1)C(=O)O [(106)]

- IC50 [2]: 32 µM
SMILES: CCCN(C(=O)N[C@@H](CSCc1ccc(OC)cc1)C(=O)O)C(=O)c1cccc(C#Cc2ccccc2)c1 [(115)]

- IC50 [2]: 44 µM
SMILES: CCCN(C(=O)N[C@@H](CSCC(C)CC)C(=O)O)C(=O)c1cccc(C#Cc2ccccc2)c1 (stereo partly shown) [(125)]

- IC50 [2]: 51 µM
- IC50 (GST tagged Mcl-1 protein): 181 µM
SMILES: CCCN(C(=O)N[C@@H](CSCc1ccccc1)C(=O)O)C(=O)c1cccc(C#Cc2ccc(Br)cc2)c1 [(134)]

- Mcl-1 IC50 (μM) (GST tagged Mcl-1 protein): n.b.^b
SMILES: CCCN(C(=O)N[C@@H](CSCC(C)C)C(=O)O)C(=O)c1cccc(C#Cc2cccc(F)c2)c1 [(140)]

- Mcl-1 IC50 (μM) (GST tagged Mcl-1 protein): n.b.^b
SMILES: CCCN(C(=O)N[C@@H](CSCC(C)C)C(=O)O)C(=O)c1cccc(C#Cc2ccccc2OC)c1 [(146)]

- Bcl-xLΔ25 IC50 (μM) [2]: n.b.^b
SMILES: CCCN(C(=O)N[C@@H](CSCC(C)C)C(=O)O)C(=O)c1cccc(C#Cc2ccncc2)c1 [(150)]

- IC50 [2]: 53 µM
SMILES: CCCN(C(=O)N[C@@H](CSCC(C)C)C(=O)NS(=O)(=O)c1cccc(-c2ccccc2)c1)C(=O)c1cccc(C#Cc2ccccc2)c1 [(155)]

Further lines, the molecule ahead of its results:

SMILES: O=C(O)[C@H](CSCc1ccccc1)NC(=O)N(CC1CCCCC1)C(=O)c1cccc(-c2ccccc2)c1 [(9)]
- IC50 [1, 3]: 14 µM

SMILES: O=C(O)[C@H](CSCc1ccccc1)NC(=O)N(C(=O)c1cccc(-c2ccccc2)c1)C1CCCCC1 [(10)]
- IC50 [1, 3]: 26 µM

SMILES: CC(C)CCN(C(=O)N[C@@H](CSCc1ccccc1)C(=O)O)C(=O)c1ccc(-c2ccccc2)cc1 [(42)]
- IC50 [1, 4]: 49 µM

SMILES: CCCN(C(=O)NCC(=O)O)C(=O)c1cccc(-c2ccccc2)c1 [(71)]
- Bcl-wΔ29 IC50 (μM) [1, 4]: n.b.^b

SMILES: O=C([C@H](CSCc1ccccc1)NC(=O)N(Cc1cccc2ccccc12)C(=O)c1cccc(-c2ccc(F)cc2)c1)N1CCOCC1 [(72)]
- Bcl-wΔ29 IC50 (μM) [1, 4]: n.b.^b

SMILES: O=C(O)[C@H](CSCc1ccccc1)NC(=O)N(Cc1ccc(Cl)c(Cl)c1)C(=O)c1ccc(-c2ccccc2)cc1 [(85)]
- Bcl-xLΔ25 IC50 (μM) [2]: n.b.^b

SMILES: CCCN(C(=O)N[C@@H](CSCc1ccccc1)C(=O)O)C(=O)c1ccc(/C=C/c2ccccc2)cc1 [(86)]
- Mcl-1 IC50 (μM) (GST tagged Mcl-1 protein): n.b.^b

SMILES: CCCN(C(=O)N[C@@H](CSCc1ccccc1)C(=O)O)C(=O)c1cccc(/C=C/c2ccccc2)c1 [(87)]
- IC50 [1, 4]: 99 µM
- IC50 [2]: 151 µM
- IC50 (GST tagged Mcl-1 protein): 161 µM

SMILES: CCCN(C(=O)N[C@@H](CSCc1ccccc1)C(=O)O)C(=O)c1cccc(CCc2ccccc2)c1 [(88)]
- IC50 [1, 4]: 49 µM
- IC50 [2]: 51 µM
- IC50 (GST tagged Mcl-1 protein): 154 µM
